Laboratory results reported in patent US20120121540A1 (priority 2007, published 2012).

Assay: HCV replicon assay (luciferase reporter, ET cell line)
Type: cell-based
Conditions: Hepatitis C virus, HCV replicon luciferase activity in ET cells
Method in brief: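 EC50 and, via WST-1 cytotoxicity, TC50 were fitted with a Hill-coefficient equation to % inhibition across 10 two-fold dilutions. Compounds at 0.1 nM-[…] with 0.5% DMSO were applied 24 h post-seeding to replicon-bearing ET cells (luc-ubi-neo/NS3-5B, adaptive mutations). Firefly luciferase signal was measured after 48-72 h.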

Q: For `O=C(NCc1cccs1)c1nc2c(C(F)(F)F)cc(-c3ccccc3F)cn2c1Cl` [Compound 197, 3-Chloro-6-(2-fluoro-phenyl)-8-trifluoromethyl-imidazo[1,2-a]pyridine-2-carboxylic acid (thiophen-2-ylmethyl)-amide], which inhibition at 10 µM is on record?
A: Its inhibition at 10 µM is 90.6%.

Q: For `O=C(NCc1cccs1)c1nc2c(C(F)(F)F)cc(-c3ccc(F)c(F)c3)cn2c1Cl` [Compound 198, 3-Chloro-6-(3,4-difluoro-phenyl)-8-trifluoromethyl-imidazo[1,2-a]pyridine-2-carboxylic acid (thiophen-2-ylmethyl)-amide], which inhibition at 10 µM is on record?
A: The inhibition at 10 µM was 83.2%.

Q: Which inhibition at 10 µM does the source give for `O=C(NCc1cccs1)c1nc2c(C(F)(F)F)cc(-c3ccc(C(F)(F)F)cc3)cn2c1Cl` [Compound 199, 3-Chloro-8-trifluoromethyl-6-(4-trifluoromethyl-phenyl)-imidazo[1,2-a]pyridine-2-carboxylic acid (thiophen-2-ylmethyl)-amide] here?
A: The inhibition at 10 µM was 41%.

Q: With `O=C(NCc1cccs1)c1nc2c(C(F)(F)F)cc(-c3ccsc3)cn2c1-c1ccsc1` [Compound 200, 3,6-Di-thiophen-3-yl-8-trifluoromethyl-imidazo[1,2-a]pyridine-2-carboxylic acid (thiophen-2-ylmethyl)-amide] as the molecule, how does the inhibition at 10 µM read?
A: The inhibition at 10 µM was 91.6%.

Q: With `O=C(NCc1ccccc1F)c1nc2c(C(F)(F)F)cc(-c3ccco3)cn2c1Cl` [Compound 201, 3-Chloro-6-furan-2-yl-8-trifluoromethyl-imidazo[1,2-a]pyridine-2-carboxylic acid 2-fluoro-benzylamide] as the molecule, how does the inhibition at 10 µM read?
A: Its inhibition at 10 µM is 72.4%.

Q: For `O=C(NCc1ccccc1OC(F)(F)F)c1nc2c(C(F)(F)F)cc(-c3ccco3)cn2c1Cl` [Compound 202, 3-Chloro-6-furan-2-yl-8-trifluoromethyl-imidazo[1,2-a]pyridine-2-carboxylic acid 2-trifluoromethoxy-benzylamide], which inhibition at 10 µM is on record?
A: The inhibition at 10 µM was 78.1%.

Q: Which inhibition at 10 µM does the source give for `O=C(NCc1cccc(OC(F)(F)F)c1)c1nc2c(C(F)(F)F)cc(-c3ccco3)cn2c1Cl` [Compound 203, 3-Chloro-6-furan-2-yl-8-trifluoromethyl-imidazo[1,2-a]pyridine-2-carboxylic acid 3-trifluoromethoxy-benzylamide] here?
A: Its inhibition at 10 µM is 47.5%.

Q: Which inhibition at 10 µM does the source give for `O=C(NCc1ccc(OC(F)(F)F)cc1)c1nc2c(C(F)(F)F)cc(-c3ccco3)cn2c1Cl` [Compound 204, 3-Chloro-6-furan-2-yl-8-trifluoromethyl-imidazo[1,2-a]pyridine-2-carboxylic acid 4-trifluoromethoxy-benzylamide] here?
A: The inhibition at 10 µM was 31.7%.

Q: With `O=C(NCc1cccs1)c1nc2c(C(F)(F)F)cc(-c3ccncc3)cn2c1Cl` [Compound 207, 3-Chloro-6-pyridin-4-yl-8-trifluoromethy-imidazo[1,2-a]pyridine-2-carboxylic acid (thiophen-2-ylmethyl)-amide] as the molecule, how does the inhibition at 10 µM read?
A: The inhibition at 10 µM was 85.7%.

Q: With `O=C(NCc1cccs1)c1nc2c(C(F)(F)F)cc(-c3cccnc3)cn2c1Cl` [Compound 208, 3-Chloro-6-pyridin-3-yl-8-trifluoromethyl-imidazo[1,2-a]pyridine-2-carboxylic acid (thiophen-2-ylmethyl)-amide] as the molecule, how does the inhibition at 10 µM read?
A: The inhibition at 10 µM was 88.5%.

Q: For `Cc1cscc1-c1cc(C(F)(F)F)c2nc(C(=O)NCc3cccs3)c(Cl)n2c1` [Compound 209, 3-Chloro-6-(4-methyl-thiophen-3-yl)-8-trifluoromethyl-imidazo[1,2-a]pyridine-2-carboxylic acid (thiophen-2-ylmethyl)-amide], which inhibition at 10 µM is on record?
A: Its inhibition at 10 µM is 83.4%.

Q: With `O=C(Nc1ccccc1)Nc1nc2c(C(F)(F)F)cc(-c3ccco3)cn2c1Cl` [Compound 211, 1-(3-Chloro-6-furan-2-yl-8-trifluoromethyl-imidazo[1,2-a]pyridin-2-yl)-3-phenyl-urea] as the molecule, how does the inhibition at 10 µM read?
A: The inhibition at 10 µM was 51.8%.

Q: With `O=C(NCc1ccc(N2CCOCC2)cc1)c1nc2c(C(F)(F)F)cc(-c3ccco3)cn2c1Cl` [Compound 212, 3-Chloro-6-furan-2-yl-8-trifluoromethyl-imidazo[1,2-a]pyridine-2-carboxylic Acid 4-morpholin-4-yl-benzylamide] as the molecule, how does the inhibition at 10 µM read?
A: The inhibition at 10 µM was 56.7%.

Q: With `O=C(NCc1cccc(N2CCOCC2)c1)c1nc2c(C(F)(F)F)cc(-c3ccco3)cn2c1Cl` [Compound 213, 3-Chloro-6-furan-2-yl-8-trifluoromethyl-imidazo[1,2-a]pyridine-2-carboxylic Acid 3-morpholin-4-yl-benzylamide] as the molecule, how does the inhibition at 10 µM read?
A: Its inhibition at 10 µM is 2.7%.

Q: Which inhibition at 10 µM does the source give for `CN(C)CCOc1ccc(CNC(=O)c2nc3c(C(F)(F)F)cc(-c4ccco4)cn3c2Cl)cc1` [Compound 214, 3-Chloro-6-furan-2-yl-8-trifluoromethyl-imidazo[1,2-a]pyridine-2-carboxylic Acid 4-(2-dimethylamino-ethoxy)-benzylamide] here?
A: Its inhibition at 10 µM is 49%.

Q: For `CN(C)CCOc1ccccc1CNC(=O)c1nc2c(C(F)(F)F)cc(-c3ccco3)cn2c1Cl` [Compound 215, 3-Chloro-6-furan-2-yl-8-trifluoromethyl-imidazo[1,2-a]pyridine-2-carboxylic Acid 2-(2-dimethylamino-ethoxy)-benzylamide], which inhibition at 10 µM is on record?
A: The inhibition at 10 µM was 49%.

Q: Which inhibition at 10 µM does the source give for `O=C(c1nc2c(C(F)(F)F)cc(-c3ccco3)cn2c1Cl)N1CCCC(c2ccccc2)C1` (stereo not shown) [Compound 216, (3-Chloro-6-furan-2-yl-8-trifluoromethyl-imidazo[1,2-a]pyridin-2-yl)-(3-phenyl-piperidin-1-yl)-methanone] here?
A: Its inhibition at 10 µM is 60.3%.

Q: For `O=C(c1nc2c(C(F)(F)F)cc(-c3ccco3)cn2c1Cl)N1Cc2cccnc2C1` [Compound 217, (3-Chloro-6-furan-2-yl-8-trifluoromethyl-imidazo[1,2-a]pyridin-2-yl)-(5,7-dihydro-pyrrolo[3,4-b]pyridin-6-yl)-methanone], which inhibition at 10 µM is on record?
A: Its inhibition at 10 µM is 38.8%.

Q: Which inhibition at 10 µM does the source give for `O=C(c1nc2c(C(F)(F)F)cc(-c3ccco3)cn2c1Cl)N1CCC(c2ccccc2)CC1` [Compound 218, (3-Chloro-6-furan-2-yl-8-trifluoromethyl-imidazo[1,2-a]pyridin-2-yl)-(4-phenyl-piperidin-1-yl)-methanone] here?
A: Its inhibition at 10 µM is 63.5%.

Q: With `O=C(NCc1ccc(-c2ccccn2)s1)c1nc2c(C(F)(F)F)cc(-c3ccco3)cn2c1Cl` [Compound 219, 3-Chloro-6-furan-2-yl-8-trifluoromethyl-imidazo[1,2-a]pyridine-2-carboxylic Acid (5-pyridin-2-yl-thiophen-2-ylmethyl)-amide] as the molecule, how does the inhibition at 10 µM read?
A: The inhibition at 10 µM was 25.4%.

Q: Which inhibition at 10 µM does the source give for `COC(=O)Cc1c(C(=O)NCc2cccs2)nc2c(C(F)(F)F)cc(-c3ccoc3)cn12` [Compound 222, {6-Furan-3-yl-2-[(thiophen-2-ylmethyl)-carbamoyl]-8-trifluoromethyl-imidazo[1,2-a]pyridin-3-yl}-acetic Acid Methyl Ester] here?
A: Its inhibition at 10 µM is 66.1%.

Q: With `O=C(O)Cc1c(C(=O)NCc2cccs2)nc2c(C(F)(F)F)cc(-c3ccoc3)cn12` [Compound 226, {6-Furan-3-yl-2-[(thiophen-2-ylmethyl)-carbamoyl]-8-trifluoromethyl-imidazo[1,2-a]pyridin-3-yl}-acetic Acid] as the molecule, how does the inhibition at 10 µM read?
A: Its inhibition at 10 µM is 98.8%.

Q: For `O=C(NCc1cccs1)c1nc2c(C(F)(F)F)cc(-c3ccoc3)cn2c1[N+](=O)[O-]` [Compound 232, 6-Furan-3-yl-3-nitro-8-trifluoromethyl-imidazo[1,2-a]pyridine-2-carboxylic Acid (thiophen-2-ylmethyl)-amide], which inhibition at 10 µM is on record?
A: Its inhibition at 10 µM is 56.6%.

Q: With `O=C(c1nc2c(C(F)(F)F)cc(-c3ccoc3)cn2c1Cl)N1CCC(c2ccc(F)cc2)C1` (stereo not shown) [Compound 233, (3-Chloro-6-furan-3-yl-8-trifluoromethyl-imidazo[1,2-a]pyridin-2-yl)-[3-(4-fluoro-phenyl)-pyrrolidin-1-yl]-methanone] as the molecule, how does the inhibition at 10 µM read?
A: The inhibition at 10 µM was 90.6%.

Q: For `O=C(c1nc2c(C(F)(F)F)cc(-c3cccc(F)c3)cn2c1Cl)N1CCC(c2ccc(F)cc2)C1` (stereo not shown) [Compound 234, [3-Chloro-6-(3-fluoro-phenyl)-8-trifluoromethyl-imidazo[1,2-a]pyridin-2-yl]-[3-(4-fluoro-phenyl)-pyrrolidin-1-yl]-methanone], which inhibition at 10 µM is on record?
A: The inhibition at 10 µM was 81.8%.

Q: For `COC(=O)Cc1c(C(=O)N2CCC(c3ccc(F)cc3)C2)nc2c(C(F)(F)F)cc(-c3ccoc3)cn12` (stereo not shown) [Compound 235, {2-[3-(4-Fluoro-phenyl)-pyrrolidine-1-carbonyl]-6-furan-3-yl-8-trifluoromethyl-imidazo[1,2-a]pyridin-3-yl}-acetic Acid Methyl Ester], which inhibition at 10 µM is on record?
A: Its inhibition at 10 µM is 96.6%.

Q: For `O=C(O)Cc1c(C(=O)N2CCC(c3ccc(F)cc3)C2)nc2c(C(F)(F)F)cc(-c3ccoc3)cn12` (stereo not shown) [Compound 236, {2-[3-(4-Fluoro-phenyl)-pyrrolidine-1-carbonyl]-6-furan-3-yl-8-trifluoromethyl-imidazo[1,2-a]pyridin-3-yl}-acetic Acid], which inhibition at 10 µM is on record?
A: The inhibition at 10 µM was 49%.

Q: For `O=C(c1nc2c(C(F)(F)F)cc(-c3cn[nH]c3)cn2c1Cl)N1CCC(c2ccc(F)cc2)C1` (stereo not shown) [Compound 238, [3-Chloro-6-(1H-pyrazol-4-yl)-8-trifluoromethyl-imidazo[1,2-a]pyridin-2-yl]-[3-(4-fluoro-phenyl)-pyrrolidin-1-yl]-methanone], which inhibition at 10 µM is on record?
A: The inhibition at 10 µM was 86.9%.

Q: Which inhibition at 10 µM does the source give for `NC(=O)Cc1c(C(=O)N2CCC(c3ccc(F)cc3)C2)nc2c(C(F)(F)F)cc(-c3ccoc3)cn12` (stereo not shown) [Compound 239, 2-{2-[3-(4-Fluoro-phenyl)-pyrrolidine-1-carbonyl]-6-furan-3-yl-8-trifluoromethyl-imidazo[1,2-a]pyridin-3-yl}-acetamide] here?
A: Its inhibition at 10 µM is 53%.

Q: For `O=C(Cc1c(C(=O)N2CCC(c3ccc(F)cc3)C2)nc2c(C(F)(F)F)cc(-c3ccoc3)cn12)NCc1ccccc1` (stereo not shown) [Compound 240, N-Benzyl-2-{2-[3-(4-fluoro-phenyl)-pyrrolidine-1-carbonyl]-6-furan-3-yl-8-trifluoromethyl-imidazo[1,2-a]pyridin-3-yl}-acetamide], which inhibition at 10 µM is on record?
A: Its inhibition at 10 µM is 33.4%.

Q: With `CN(C)CCNC(=O)Cc1c(C(=O)N2CCC(c3ccc(F)cc3)C2)nc2c(C(F)(F)F)cc(-c3ccoc3)cn12` (stereo not shown) [Compound 241, N-(2-Dimethylamino-ethyl)-2-{2-[3-(4-fluoro-phenyl)-pyrrolidine-1-carbonyl]-6-furan-3-yl-8-trifluoromethyl-imidazo[1,2-a]pyridin-3-yl}-acetamide] as the molecule, how does the inhibition at 10 µM read?
A: Its inhibition at 10 µM is 100%.
